Experimental findings from patent US8367710B2, “Bicyclo-substituted pyrazolon azo derivatives, preparation process and pharmaceutical use thereof” (Jiangsu Hengrui Medicine Co. Ltd., priority 2008, dated 2013) are described below.

Structures are written as SMILES.

In one series the target is T1, human TPO receptor (Homo sapiens, UniProt P40238).
T1 sequence (P40238 26-635): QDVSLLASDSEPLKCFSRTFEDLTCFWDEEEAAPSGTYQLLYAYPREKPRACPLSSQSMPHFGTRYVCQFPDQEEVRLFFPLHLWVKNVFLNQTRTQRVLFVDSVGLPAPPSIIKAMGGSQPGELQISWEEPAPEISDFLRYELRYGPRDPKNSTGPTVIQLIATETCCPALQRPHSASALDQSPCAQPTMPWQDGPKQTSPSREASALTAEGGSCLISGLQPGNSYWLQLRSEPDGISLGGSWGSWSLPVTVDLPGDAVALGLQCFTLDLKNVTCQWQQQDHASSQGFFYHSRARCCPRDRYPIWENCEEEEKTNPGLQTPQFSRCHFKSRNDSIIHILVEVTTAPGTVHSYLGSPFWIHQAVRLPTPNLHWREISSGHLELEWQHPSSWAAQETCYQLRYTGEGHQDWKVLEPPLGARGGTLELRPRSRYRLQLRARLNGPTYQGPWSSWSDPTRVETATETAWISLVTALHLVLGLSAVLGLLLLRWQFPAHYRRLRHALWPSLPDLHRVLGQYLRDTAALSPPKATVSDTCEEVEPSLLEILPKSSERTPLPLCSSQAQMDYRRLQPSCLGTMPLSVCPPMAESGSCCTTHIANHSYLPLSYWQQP
Kind of series: pro-proliferation effect on BAF3-TPOR cell (CCK-8). In kind it is cell-based, mouse. The following applies: BAF3-TPOR cells, proliferation relative to rhTPO positive control. As to the method:
The sequence of primers which contains multi-sites mutation was designed as follows: […]
The E. coli DH5α competent cell was transformed with mutated plasmid, and positive colonies were picked up through ampicillin selection.
(2) BAF3-TPOR stable transfected cell line: the following method was used to construct the BaF3 cell which stably over-expressed functional human TPO receptor. […] The stable transfected cells BAF3-TPOR were selected with G418 (Gibco, US), then incubated with RPMI1640 medium plus 10% FBS (Gibco, US), […] G418, 5 ng/mL, rmIL-3 (Chemicon, US).
(1) Washing cells by centrifugation: a suitable amount of cell suspension was centrifuged at 1000 rpm for 5 minutes, and the supernatant was discarded. 10 mL of cell culture media without containing IL-3 was added. Then the resulting cell suspension was centrifuged at 1000 rpm for 5 minutes, and the supernatant was discarded.
(2) 1 mL of cell culture media without containing IL-3 was added to beat upon them to equality, and the number of a suitable amount of cell suspension was counted after dilution.
(3) According to the result of the cell counting, a cell suspension in a concentration of 100,000 cell/mL was prepared.
(4) 100 μL of cell suspension was transferred to each well of 96-well culture plate, and there were 3 parallel wells, that is, there were a blank control group (B), a negative control group (N), a positive control group of TPO (P) and a test compound group (S).
(5) The test compound was dissolved in DMSO to prepare a 10 mM stock solution, and then the solution was diluted with RPMI 1640 medium into a series of test samples at different concentration: 30 μM, 10 μM, 3 μM, 1 μM, 0.3 μM, 0.1 μM, 0.03 μM, 0.01 μM, 0.003 μM, 0.001 μM.
(6) 10 μL of test compound solution was transferred to each well respectively; 1 μL of rhTPO (10 μg/mL) was added to positive control well.
(7) The plates were incubated in an incubator at 5% CO2 and 37° C. for 24 hours.
(9) OD value was detected at 450 nm by VICTOR3 (Perkin Elmer 1420-120) plate reader.
(1) The proliferation rate was calculated as follows: Rate=[(S−B)/(P−B)]*100%
S: OD value of wells which contains test compound.
B: OD value of blank control wells
P: OD value of positive control wells
(2) The EC50 value was calculated by Origin 7.0 software.

A short description of series [1]: Pharmacokinetics assay in rats after intragastric administration. The class given is in vivo. Conditions: both sexes, Sprague-Dawley, rat, plasma, po, SD rats, 5 mg/Kg; for Vd/F: read-out: Apparent Distribution Volume Vz/F; for CL/F: read-out: Clearance CL/F (converted); for AUC: read-out: Curve Area AUC; for half-life: read-out: Half-Life t½ (converted); for MRT: read-out: Mean Residence Time MRT; for Cmax: read-out: Plasma Conc. Cmax. As for the experimental part:
Test Example 1: Pharmacokinetics assay of the compounds of the present disclosure
The pharmacokinetics of the compounds of the present disclosure was studied and evaluated in rats.
The test compound was diluted with 1% sodium carboxymethyl cellulose to 0.5 mg/mL (calculated as the free acid form) of suspension before use.
24 healthy adult SD rats, male and female in half, were divided into […]. After an overnight fast, the rats were administered intragastrically at a dose of 5.0 mg/kg (calculated as the free acid form), at a volume of 10 mL/kg.
24 healthy adult SD rats, male and female in half, were administered intragastrically at a dose of 5.0 mg/kg after an overnight fast. Blood samples (0.2 mL) were taken from eye socket at pre administration and at 0.5, 1.0, 2.0, 3.0, 4.0, 5.0, 6.0, 8.0, 11.0, 14.0, 24.0, 36.0 and 48.0 hours post administration, which were stored in heparinized tubes and centrifuged for 10 minutes at 3,500 rpm. The plasma samples were stored at −20° C. until analysis.
50 μL of rat plasma, obtained at various time points after administration, 20 μL of internal standard solution and 20 μL of a solvent mixture of methanol and water (80:20, v/v) were mixed well, and then 150 μL of methanol was added to result in protein precipitation. Then the mixture was mixed for 1 minute using a vortexer and centrifuged for 10 minutes at 13,000 rpm. 20 μL of the supernatant was analyzed by LC/MS/MS.
50 μL of blank plasma was spiked with a series of standard solutions to produce final concentrations of 1.0, 5.0, 25.0, 50.0, 100.0, 250.0, 500.0 ng/mL, followed by addition of 20 μL of internal standard solution, which was treated according to plasma sample pretreatment protocol. A typical calibration curve equation was obtained with plasma concentration as the abscissa and the chromatographic peak area ratio of sample to internal standard as the ordinate, using weighted least squares method (w=1/x^2) for linear regression.
The compartmental model of pharmacokinetics was fitted for the test compounds and the major pharmacokinetic parameters were calculated in which Cmax and tmax were the actually measured values.

With `CC1=NN(c2ccc(C)c(C)c2)C(=O)/C1=N\Nc1cccc(-c2cccc(C(=O)O)c2)c1O` [Eltrombopag, eltrombopag, reference compound], at human TPO receptor, the 50% effective concentration (EC50) was 0.299 µM. In addition, in series [1], the Vd/F was 1.53 ± 0.26 L/kg, the CL/F is 3 mL/min/kg, the exposure (AUC) amounted to 29000 ± 3820 ng·h/mL and the half-life was 6.11 ± 1.04 h. Also, in series [1], the MRT came out at 4.63 ± 1.03 h and the maximum concentration (Cmax) turned out to be 8470 ± 950 ng/mL.

`CC1=NN(c2ccc3c(c2)CCC3)C(=O)/C1=N\Nc1cc(C)cc(-c2cccc(C(=O)O)c2)c1O` [Example 29, 2′-Hydroxy-3′-[N′-(1-indan-5-yl-3-methyl-5-oxo-1,5-dihydro-pyrazol-4-ylidene)-hydrazino]-5′-methyl-biphenyl-3-carboxylic acid]: at human TPO receptor, the concentration for a half-maximal effect (EC50) was determined as 0.124 µM. Moreover, in series [1], the Vd/F was 0.77 ± 0.39 L/kg, the CL/F is 2.33 mL/min/kg, the AUC came out at 44800 ± 19400 ng·h/mL and the half-life was 4.01 ± 0.63 h. In series [1], the mean residence time MRT stood at 4.29 ± 0.8 h and the Cmax came out at 13000 ± 5960 ng/mL.

`CC1=NN(c2ccc3c(c2)C(C)CC3)C(=O)/C1=N\Nc1cccc(-c2ccc(C(=O)O)o2)c1O` (stereo not shown) [Example 44, 5-(2-Hydroxy-3-{N′-[3-methyl-1-(3-methyl-indan-5-yl)-5-oxo-1,5-dihydro-pyrazol-4-ylidene]-hydrazino}-phenyl)-furan-2-carboxylic acid] showed an EC50 at human TPO receptor of 0.05 µM.

In the case of `CC1=NN(c2ccc3c(c2)CC(C)(C)C3)C(=O)/C1=N\Nc1cccc(-c2ccc(C(=O)O)o2)c1O` [Example 45, 5-(3-{N′-[1-(2,2-Dimethyl-indan-5-yl)-3-methyl-5-oxo-1,5-dihydro-pyrazol-4-ylidene]-hydrazino}-2-hydroxy-phenyl)-furan-2-carboxylic acid], on human TPO receptor, the EC50 stood at 0.13 µM.

Take `CC1=NN(c2ccc3c(c2)CCC3)C(=O)/C1=N\Nc1cc(C)cc(-c2ccc(C(=O)O)o2)c1O` [Example 46, 5-{2-Hydroxy-3-[N′-(1-indan-5-yl-3-methyl-5-oxo-1,5-dihydro-pyrazol-4-ylidene)-hydrazino]-5-methyl-phenyl}-furan-2-carboxylic acid]: the half-maximal effective concentration (EC50) on human TPO receptor amounted to 0.056 µM.

Regarding `CC1=NN(c2ccc3c(c2)CCCC3)C(=O)/C1=N\Nc1cc(C)cc(-c2ccc(C(=O)O)o2)c1O` [Example 50, 5-(2-Hydroxy-5-methyl-3-{N′-[3-methyl-5-oxo-1-(5,6,7,8-tetrahydro-naphthalen-2-yl)-1,5-dihydro-pyrazol-4-ylidene]-hydrazino}-phenyl)-furan-2-carboxylic acid], it took 0.126 µM to reach a half-maximal effect at human TPO receptor (EC50).

Consider `CC1=NN(c2ccc3c(c2)CCCC3)C(=O)/C1=N\Nc1cccc(-c2csc(C(=O)O)c2)c1O` [Example 51, 4-(2-Hydroxy-3-{N′-[3-methyl-5-oxo-1-(5,6,7,8-tetrahydro-naphthalen-2-yl)-1,5-dihydro-pyrazol-4-ylidene]-hydrazino}-phenyl)-thiophene-2-carboxylic acid], for which the midpoint of the response at human TPO receptor, the EC50, lay at 0.055 µM.

As for `COC(=O)c1ccc(-c2cccc(N/N=C3\C(=O)N(c4ccc5c(c4)CCCC5)N=C3C)c2O)o1` [Example 54, 5-(2-Hydroxy-3-{N′-[3-methyl-5-oxo-1-(5,6,7,8-tetrahydro-naphthalen-2-yl)-1,5-dihydro-pyrazol-4-ylidene]-hydrazino}-phenyl)-furan-2-carboxylic acid methyl ester], on human TPO receptor, the EC50 came to 0.133 µM.

In turn, `COC(=O)c1ccc(-c2cccc(N/N=C3\C(=O)N(c4ccc5c(c4)CCC5)N=C3C)c2O)o1` [Example 55, 5-{2-hydroxy-3-[N′-(1-indan-5-yl-3-methyl-5-oxo-1,5-dihydro-pyrazol-4-ylidene)-hydrazino]-phenyl}-furan-2-carboxylic acid methyl ester] showed a 50% effective concentration (EC50) at human TPO receptor of 0.071 µM.

On to `CC1=NN(c2ccc3c(c2)CC(C)(C)C3)C(=O)/C1=N\Nc1cccc(-c2cccc(C(=O)O)c2)c1O` [Example 56, 3′-{N′-[1-(2,2-Dimethyl-indan-5-yl)-3-methyl-5-oxo-1,5-dihydro-pyrazol-4-ylidene]-hydrazino}-2′-hydroxy-biphenyl-3-carboxylic acid], for which the EC50 at human TPO receptor was 0.06 µM.
